Laboratory results published in article PMC6768028, “Synthesis, SAR and in vitro therapeutic potentials of thiazolidine-2,4-diones” (Chemistry Central Journal, 2018).
In brackets after ≈: the same amount, converted by molar mass.

Legend:
[1] = test system: Bacillus subtilis; assay: Antimicrobial activity, tube dilution method (MIC); assay type: cell-based; conditions: 24 h, read-out: Minimum inhibitory concentration, B. subtilis, tube dilution, 37 ± 1 °C, 24 h
Protocol: (§1) The in vitro antimicrobial activity of synthesized compounds was done by tube dilution method against Gram-positive bacteria: Staphylococcus aureus, Bacillus subtilis, Gram-negative bacteria: Escherichia coli, Klebsiella pneumonia, Salmonella typhi and fungal: Candida albicans and Aspergillus niger strains using cefadroxil and fluconazole as standard. Dilutions of test and standard compounds were prepared in double strength nutrient broth for bacterial strains and Sabouraud dextrose broth for fungal strains.

[2] = test system: Escherichia coli; assay: Antimicrobial activity, tube dilution method (MIC); assay type: cell-based; conditions: 24 h, read-out: Minimum inhibitory concentration, E. coli, tube dilution, 37 ± 1 °C, 24 h
Protocol: as §1

[3] = test system: Klebsiella pneumonia; assay: Antimicrobial activity, tube dilution method (MIC); assay type: cell-based; conditions: Klebsiella pneumoniae, 24 h, read-out: Minimum inhibitory concentration, K. pneumonia, tube dilution, 37 ± 1 °C, 24 h
Protocol: as §1

[4] = test system: Salmonella typhi; assay: Antimicrobial activity, tube dilution method (MIC); assay type: cell-based; conditions: Salmonella enterica, TYPHI, 24 h, read-out: Minimum inhibitory concentration, S. typhi
Protocol: as §1

[5] = test system: Staphylococcus aureus; assay: Antimicrobial activity, tube dilution method (MIC); assay type: cell-based; conditions: 24 h, read-out: Minimum inhibitory concentration, S. aureus, tube dilution, 37 ± 1 °C, 24 h
Protocol: as §1

[6] = test system: Aspergillus niger; assay: Antifungal activity, tube dilution method (MIC); assay type: cell-based; conditions: 168 h, read-out: Minimum inhibitory concentration, A. niger, tube dilution, 25 ± 1 °C, 7 days
Protocol: as §1

[7] = test system: Candida albicans; assay: Antifungal activity, tube dilution method (MIC); assay type: cell-based; conditions: 48 h, read-out: Minimum inhibitory concentration, C. albicans, tube dilution, 37 ± 1 °C, 48 h
Protocol: as §1

[8] = test system: α-amylase enzyme (diastase); assay: Antidiabetic activity: α-amylase inhibitory activity using diastase, colorimetric method; assay type: biochemical; conditions: for IC50 (antidiabetic activity, α-amylase): calculated via graph of % inhibition
Protocol: All the synthesized compounds were evaluated against α-amylase inhibitory activity by using diastase based on colorimetric method. 0.25 g of soluble potato starch was dissolved in 50 ml of 20 mM phosphate buffer by heating for 15 min. 1 mg diastase (amylase enzyme) was mixed in 100 ml of 20 mM phosphate buffer (pH 6.9) to obtain the enzyme solution. Different concentrations of all the synthesized derivatives were prepared by dissolving them in DMSO. […] 1 ml of enzyme solution was mixed with 1 ml of each synthesized derivatives and incubated for 10 min at 25 °C. Then 1 ml of this mixture was mixed with 1 ml of soluble potato starch solution in a tube and incubated for 10 min at 25 °C. Then tubes were closed after adding 1 ml of color reagent and placed into water bath for 15 min at 85 °C. The reaction mixture was removed from water bath after 15 min. After cooling, the reaction mixture was diluted with 9 ml of distilled water and the absorbance was taken at 540 nm in UV spectrophotometer. Blank solution was prepared by replacing the enzyme solution with buffer solution and absorbance was taken. Measurement of control was performed in identical manner by replacing the synthesized derivatives in 1 ml of DMSO.
Percentage inhibition of α-amylase enzyme was calculated by using following formula:1 %Inhibition=ABlank-ASample/ABlank×100

[9] = Antioxidant activity: free radical scavenging method by DPPH assay; conditions: for % inhibition (DPPH), 25 μg/ml / % inhibition (DPPH), 50 μg/ml / % inhibition (DPPH), 75 μg/ml / % inhibition (DPPH), 100 μg/ml: 30 min, 517 nm; for IC50 (antioxidant activity, DPPH): calculated via graph of % inhibition
Protocol: The antioxidant activity of the newly synthesized compounds were evaluated spectrophotometrically using free radical scavenging method by DPPH (2,2-diphenyl-1-picrylhydrazyl) assay. The DPPH is a stable free radical with maximal absorption at 517 nm and is reduced to a corresponding hydrazine when it reacting with hydrogen donors. […] DPPH solution (3 μg/ml) was prepared in methanol and DPPH (in 1:1) solution was used for blank reference. Four dilutions of different concentrations (25, 50, 75 and 100 μg/ml) of each synthesized compound and standard (ascorbic acid) were prepared in the methanol and 1 ml of each concentration was added to 1 ml of DPPH solution. The solution mixture was shaken vigorously and kept in dark place for 30 min at room temperature and absorbance was measured by UV at 517 nm. Percentage inhibition of Free radical DPPH was calculated as follows:1 %Inhibition=ABlank-ASample/ABlank×100 where, ABlank: absorbance of the blank reaction, ASample: absorbance of the test compound.

SMILES	MIC [1]	MIC [2]	MIC [3]	MIC [4]	MIC [5]	MIC [6]	MIC [7]	% inhibition (α-amylase), 25 μg/ml [8]	% inhibition (α-amylase), 50 μg/ml [8]	% inhibition (α-amylase), 75 μg/ml [8]	% inhibition (α-amylase), 100 μg/ml [8]	IC50 (antidiabetic activity, α-amylase) [8]	% inhibition (DPPH), 25 μg/ml [9]	% inhibition (DPPH), 50 μg/ml [9]	% inhibition (DPPH), 75 μg/ml [9]	% inhibition (DPPH), 100 μg/ml [9]	IC50 (antioxidant activity, DPPH) [9]	melting point
COc1cccc(C=C2SC(=O)NC2=O)c1 [Compound 16, 5-(3-Methoxybenzylidene)thiazolidine-2,4-dione]	5.31 mM (≈ 1250 µg/mL)	5.31 mM (≈ 1250 µg/mL)	10.6 mM (≈ 2490 µg/mL)	5.31 mM (≈ 1250 µg/mL)	5.31 mM (≈ 1250 µg/mL)	5.31 mM (≈ 1250 µg/mL)	5.31 mM (≈ 1250 µg/mL)	27.52%	43.73%	57.27%	85.23%	40.92 µg/mL (≈ 174 µM)	30.65%	43.62%	79.11%	87.97%	39.77 µg/mL (≈ 169 µM)	217 to 220 °C
O=Cc1ccc(C=C2SC(=O)NC2=O)cc1 [Compound 21, 4-((2,4-Dioxothiazolidin-5-ylidene)methyl)benzaldehyde]	5.3 mM (≈ 1240 µg/mL)	5.3 mM (≈ 1240 µg/mL)	10.7 mM (≈ 2500 µg/mL)	5.3 mM (≈ 1240 µg/mL)	5.3 mM (≈ 1240 µg/mL)	5.3 mM (≈ 1240 µg/mL)	5.3 mM (≈ 1240 µg/mL)	21.98%	47.28%	70.56%	74.76%	38.65 µg/mL (≈ 166 µM)	17.91%	41.64%	75.98%	92.32%	55.51 µg/mL (≈ 238 µM)	147 to 150 °C
